pKd: −log10 of the molar value.
Experiments:
PPARγ = biological target: T1, PPARγ (Homo sapiens, UniProt P37231); test: Cross-curve PPAR transactivation test (PPARγ); assay type: cell-based; details: HeLN cells, Gal-hPPARγ, luciferase reporter; cross curves against reference agonist, Schild regression; n.a means not active; read-out: PPAR gamma Kd app
T1 sequence (P37231 238-505 limits assumed): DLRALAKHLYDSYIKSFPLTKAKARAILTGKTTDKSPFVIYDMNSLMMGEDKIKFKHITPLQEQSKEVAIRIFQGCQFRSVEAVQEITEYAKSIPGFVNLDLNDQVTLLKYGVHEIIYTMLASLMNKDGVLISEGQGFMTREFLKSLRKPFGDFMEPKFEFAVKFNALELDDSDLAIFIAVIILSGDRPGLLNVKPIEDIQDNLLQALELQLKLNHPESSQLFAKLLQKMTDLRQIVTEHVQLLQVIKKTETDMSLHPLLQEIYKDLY
Experimental: (§1) The activation of PPAR receptors with an agonist (activator) in HeLN cells leads to the expression of a reporter gene, luciferase, which, in the presence of a substrate, generates light. The modulation of the PPAR receptors is measured by quantifying the luminescence produced after incubating the cells in the presence of a reference agonist. The ligands displace the agonist from its site. The measurement of the activity is performed by quantifying the light produced. This measurement makes it possible to determine the modulatory activity of the compounds according to the invention by determining the constant that is the affinity of the molecule for the PPAR receptor. Since this value can fluctuate depending on the basal activity and the expression of the receptor, it is referred to as Kd apparent (KdApp in nM).
(§2) To determine this constant, “cross curves” of the test product against a reference agonist are produced in a 96-well plate: 10 concentrations of the test product plus a concentration 0 are arranged in a line, and 7 concentrations of the agonist plus a concentration 0 are arranged in a column. This is 88 measurement points for 1 product and 1 receptor. The remaining 8 wells are used for repeatability controls.
(§3) Measurements are also taken for total agonist controls with the same products.
(§4) The HeLN cell lines used are stable transfectants containing the plasmids ERE-βGlob-Luc-SV-Neo (reporter gene) and PPAR (α, δ, γ) Gal-hPPAR. These cells are inoculated into 96-well plates at a rate of 10 000 cells per well in 100 μl of DMEM medium without phenol red and supplemented with 10% of defatted calf serum. The plates are then incubated at 37° C. and 7% CO2 for 16 hours.
(§5) The various dilutions of the test products and of the reference ligand are added at a rate of 5 μl per well. The plates are then incubated for 18 hours at 37° C. and 7% CO2. The culture medium is removed by turning over and 100 μl of a 1:1 PBS/luciferin mixture are added to each well. After 5 minutes, the plates are read by the luminescence detector.

PPARδ = biological target: T2, PPARδ (Homo sapiens, UniProt Q03181); test: Cross-curve PPAR transactivation test (PPARδ); assay type: cell-based; details: HeLN cells, Gal-hPPARδ, luciferase reporter; cross curves against reference agonist, Schild regression; n.a means not active; read-out: PPARs delta Kd app
T2 sequence (Q03181 171-441 limits assumed): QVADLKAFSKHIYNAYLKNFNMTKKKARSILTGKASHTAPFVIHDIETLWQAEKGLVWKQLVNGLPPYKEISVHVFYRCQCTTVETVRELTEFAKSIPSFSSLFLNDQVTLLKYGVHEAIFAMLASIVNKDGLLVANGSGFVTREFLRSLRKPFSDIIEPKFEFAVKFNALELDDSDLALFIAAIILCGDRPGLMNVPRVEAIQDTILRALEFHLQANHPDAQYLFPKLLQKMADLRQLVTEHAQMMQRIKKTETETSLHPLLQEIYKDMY
Experimental: as §1, §2, §3, §4, §5

PPARα = biological target: T3, PPARα (Homo sapiens, UniProt Q07869); test: Cross-curve PPAR transactivation test (PPARα); assay type: cell-based; details: HeLN cells, Gal-hPPARα, luciferase reporter; cross curves against reference agonist, Schild regression; n.a means not active; read-out: PPAR alpha Kd app
T3 sequence (Q07869 202-468 limits assumed): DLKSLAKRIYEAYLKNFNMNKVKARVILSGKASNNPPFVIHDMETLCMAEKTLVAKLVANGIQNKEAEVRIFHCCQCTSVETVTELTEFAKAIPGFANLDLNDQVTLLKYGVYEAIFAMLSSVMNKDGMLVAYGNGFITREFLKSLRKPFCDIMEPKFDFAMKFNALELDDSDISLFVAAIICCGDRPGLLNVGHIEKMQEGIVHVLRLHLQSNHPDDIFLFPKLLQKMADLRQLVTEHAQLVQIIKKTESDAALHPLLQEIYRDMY
Experimental: as §1, §2, §3, §4, §5

Row | SMILES | melting point | pKd (PPARγ) | pKd (PPARδ) | pKd (PPARα)
1 | CCCCCCCNC(=O)N(C)c1cccc(-c2ccc(CCC(=O)NO)cc2)c1 [Example 6, 3-[3′-(3-heptyl-1-methylureido)biphenyl-4-yl]-N-hydroxypropionamide] | 100 to 101 °C |  |  | 
2 | CN(C(=O)Nc1ccc2ccccc2c1)c1cccc(-c2ccc(CCC(=O)O)cc2)c1 [Example 7, 3-[3′-(1-methyl-3-naphthalen-2-ylureido)biphenyl-4-yl]propanoic acid] | 170 to 171 °C |  |  | 
3 | CCCCCCCNC(=O)N(C)c1cccc(-c2ccc(CCC(=O)O)cc2F)c1 [Example 10, 3-[2-fluoro-3′-(3-heptyl-1-methylureido)biphenyl-4-yl]propanoic acid] | 80 to 82 °C |  |  | 
4 | CCCCCCNC(=O)N(C)c1cccc(-c2ccc(CCC(=O)O)cc2)c1 [Example 11, 3-[3′-(3-hexyl-1-methylureido)biphenyl-4-yl]propanoic acid] | 119 to 120 °C |  |  | 
5 | CCCCCCCNC(=O)N(C)c1cccc(-c2ccc(CCC(=O)O)cc2OCCCCl)c1 [Example 17, 3-[2-(3-chloropropoxy)-3′-(3-heptyl-1-methylureido)biphenyl-4-yl]propanoic acid] |  | 9.00 |  | 6.30
6 | CCCCOc1ccc(NC(=O)N(C)c2cccc(-c3ccc(CCC(=O)O)cc3)c2)cc1 [Example 33, 3-{3′-[3-(4-butoxyphenyl)-1-methylureido]biphenyl-4-yl}propanoic acid] |  | 8.40 | 6.00 | 
7 | CCCCOc1ccc(NC(=O)N(CC)c2cccc(-c3ccc(CCC(=O)O)cc3)c2)cc1 [Example 34, 3-{3′-[3-(4-butoxyphenyl)-1-ethylureido]biphenyl-4-yl}propanoic acid] |  | 8.70 | 8.10 | 6.30
8 | CCCCCCCNC(=O)N(C)c1cccc(-c2ccc(CCC(=O)O)cc2OCC2CC2)c1 [Example 35, 3-[2-cyclopropylmethoxy-3′-(3-heptyl-1-methylureido)biphenyl-4-yl]propanoic acid] |  | 9.00 | 6.00 | 
9 | CCCCCCCNC(=O)N(C)c1cccc(-c2ccc(CCC(=O)O)cc2OCCCCO)c1 [Example 40, 3-[3′-(3-heptyl-1-methylureido)-2-(4-hydroxybutoxy)biphenyl-4-yl]propanoic acid] |  | 9.00 |  | 5.10
10 | CCCCCCCNC(=O)N(C)c1cccc(-c2ccc(CCC(=O)O)cc2OCc2cccc(F)c2)c1 [Example 43, 3-[2-(3-fluorobenzyloxy)-3′-(3-heptyl-1-methylureido)biphenyl-4-yl]propanoic acid] |  | 8.70 |  | 5.70
11 | CCCCCCCNC(=O)N(C)c1cccc(-c2ccc(CCC(=O)O)cc2OCCCCC)c1 [Example 45, 3-[3′-(3-heptyl-1-methylureido)-2-pentyloxybiphenyl-4-yl]propanoic acid] |  | 9.60 |  | 6.92
12 | CCCCCNC(=O)N(C)c1cccc(-c2ccc(CCC(=O)O)cc2OCCCCC)c1 [Example 46, 3-[3′-(1-methyl-3-pentylureido)-2-pentyloxybiphenyl-4-yl]propanoic acid] |  | 9.60 |  | 7.52
13 | CCCCOc1cc(CCC(=O)O)ccc1-c1cccc(N(C)C(=O)Nc2ccccc2)c1 [Example 48, 3-[2-butoxy-3′-(1-methyl-3-phenylureido)biphenyl-4-yl]propanoic acid] |  | 8.70 |  | 5.70

Results, then the compound that gave them:

Row | melting point | pKd (PPARγ) | pKd (PPARδ) | pKd (PPARα) | SMILES
14 | 101 °C | 8.70 | 6.30 |  | CCCCCCCNC(=O)N(C)c1cccc(-c2ccc(CCC(=O)O)cc2)c1 [Example 2, 3-[3′-(3-heptyl-1-methylureido)biphenyl-4-yl]propanoic acid]
15 |  | 8.40 | 5.70 | 5.70 | CCCCCCCNC(=O)N(C)c1cccc(-c2ccc(CCC(=O)O)c(F)c2)c1 [Example 3, 3-[3-fluoro-3′-(3-heptyl-1-methylureido)biphenyl-4-yl]propanoic acid]
16 | 95 to 96 °C |  |  |  | CCCCCCCNC(=S)N(C)c1cccc(-c2ccc(CCC(=O)O)cc2)c1 [Example 8, 3-[3′-(3-heptyl-1-methylthioureido)biphenyl-4-yl]propanoic acid]
17 | 130 to 131 °C |  |  |  | CCCCCCCNC(=O)N(C)c1cccc(-c2ccc(/C=C/C(=O)O)cc2F)c1 [Example 9, (E)-3-[2-fluoro-3′-(3-heptyl-1-methylureido)biphenyl-4-yl]acrylic acid]
18 | 173.5 to 175 °C | 8.70 | 5.70 |  | CN(C(=O)Nc1ccc(OCc2ccccc2)cc1)c1cccc(-c2ccc(CCC(=O)O)cc2)c1 [Example 13, 3-{3′-[3-(4-benzyloxyphenyl)-1-methylureido]biphenyl-4-yl}propanoic acid]
19 |  | 8.70 | 6.30 | 6.30 | CCCCc1ccc(NC(=O)N(C)c2cccc(-c3ccc(CCC(=O)O)cc3)c2)cc1 [Example 14, 3-{3′-[3-(4-butylphenyl)-1-methylureido]biphenyl-4-yl}propanoic acid]
20 |  | 8.70 | 5.70 | 5.70 | CCCCCCCNC(=O)N(C)c1cccc(-c2ccc(CCC(=O)O)cc2OCCOC)c1 [Example 15, 3-[3′-(3-heptyl-1-methylureido)-2-(2-methoxyethoxy)biphenyl-4-yl]propanoic acid]
21 |  | 8.40 | 6.60 | 5.70 | CCCCCCCNC(=O)N(C)c1cccc(-c2ccc(CCC(=O)O)cc2OC)c1 [Example 18, 3-[3′-(3-heptyl-1-methylureido)-2-methoxybiphenyl-4-yl]propanoic acid]
22 |  | 8.40 | 5.70 | 6.30 | CCCCCCCNC(=O)N(C)c1cccc(-c2ccc(/C=C/C(=O)O)cc2OCc2ccccc2)c1 [Example 24, (E)-3-[2-benzyloxy-3′-(3-heptyl-1-methylureido)biphenyl-4-yl]acrylic acid]
23 |  | 9.60 | 6.92 | 6.30 | CCCCCCCNC(=O)N(C)c1cccc(-c2ccc(CCC(=O)O)cc2OCCC)c1 [Example 25, 3-[3′-(3-heptyl-1-methylureido)-2-propoxybiphenyl-4-yl]propanoic acid]
24 |  | 8.70 | 5.70 | 6.60 | CCCCCCCNC(=O)N(C)c1cccc(-c2ccc(CCC(=O)O)cc2OCCC(F)(F)F)c1 [Example 37, 3-[3′-(3-heptyl-1-methylureido)-2-(3,3,3-trifluoropropoxy)biphenyl-4-yl]propanoic acid]
25 |  | 9.00 |  | 5.40 | CCCCCCCNC(=O)N(C)c1cccc(-c2ccc(CCC(=O)O)cc2OCc2ccccc2)c1 [Example 42, 3-[2-benzyloxy-3′-(3-heptyl-1-methylureido)biphenyl-4-yl]propanoic acid]
26 |  | 8.70 |  | 6.00 | CCCCCCCNC(=O)N(C)c1cccc(-c2ccc(CCC(=O)O)cc2OCCOCC)c1 [Example 47, 3-[2-(2-ethoxyethoxy)-3′-(3-heptyl-1-methylureido)biphenyl-4-yl]propanoic acid]
27 |  | 8.70 |  | 5.70 | CCCCCNC(=O)N(C)c1cccc(-c2ccc(CCC(=O)O)cc2OCCOCC)c1 [Example 49, 3-[2-(2-ethoxyethoxy)-3′-(1-methyl-3-pentylureido)biphenyl-4-yl]propanoic acid]

— patent publication US7863332B2, “Biaromatic compound activators of PPARγ receptors and cosmetic/pharmaceutical compositions comprised thereof” (Galderma Research & Development, priority 2004, dated 2011)
